Measured values: PubChem BioAssay (NCI)
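Test compounds were applied to cells in 96-well plates for 48 hours at 5 doses. At the GI50, growth is halved. Definition used: TGI = concentration required for complete inhibition of growth.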

How the values were obtained:
Experiment in all cases: inhibition of tumour cell growth, NCI panel, 48 h
SNB-75 CNS = system: SNB-75 CNS
SF-295 CNS = system: SF-295 CNS
KM12 colon = system: KM12 colon
SW-620 colon = system: SW-620 colon
EKVX NSCLC = system: EKVX NSCLC
HCT-15 colon = system: HCT-15 colon
IGROV1 ovarian = system: IGROV1 ovarian
786-0 renal = system: 786-0 renal
SK-OV-3 ovarian = system: SK-OV-3 ovarian
PC-3 prostate = system: PC-3 prostate
M14 melanoma = system: M14 melanoma
MDA-N = system: MDA-N

Structure (SMILES) | TGI (SNB-75 CNS) [µM] | TGI (SF-295 CNS) [µM] | TGI (KM12 colon) [µM] | TGI (SW-620 colon) [µM] | TGI (EKVX NSCLC) [µM] | TGI (HCT-15 colon) [µM] | TGI (IGROV1 ovarian) [µM] | TGI (786-0 renal) [µM] | TGI (SK-OV-3 ovarian) [µM] | TGI (PC-3 prostate) [µM] | TGI (M14 melanoma) [µM] | TGI (MDA-N) [µM] | GI50 (SNB-75 CNS) [µM] | GI50 (SF-295 CNS) [µM] | GI50 (KM12 colon) [µM] | GI50 (SK-OV-3 ovarian) [µM] | GI50 (SW-620 colon) [µM] | GI50 (EKVX NSCLC) [µM] | GI50 (HCT-15 colon) [µM] | GI50 (IGROV1 ovarian) [µM]
CCCCCCc1cn([C@H]2C[C@H](O)[C@@H](CO)O2)c(=O)[nH]c1=O | > 100 | > 31.6 | > 100 | > 100 | > 100 | > 100 | > 100 |  |  |  |  |  |  |  |  |  |  |  |  | 
C=CCn1c(=O)c2ccccc2[n+]2c(-c3cccc([N+](=O)[O-])c3)csc12 | 69.9 | > 100 | > 100 | > 100 | > 100 |  | > 100 | > 100 | > 100 | > 100 | > 100 | > 100 |  |  |  |  |  |  |  | 
CN(C)C=Nc1nncc2n[nH]nc12 | > 100 | > 100 | > 100 | > 100 | > 100 | > 100 | > 100 | > 100 |  | > 100 | > 100 | > 100 |  |  |  |  |  |  |  | 
Cc1cccc2c1C(=O)[C@@](C)([C@]1(C)Nc3cccc(C)c3C1=O)N2 | > 100 | > 100 | > 100 | > 100 | > 100 | > 100 | > 100 | > 100 | > 100 | > 100 | > 100 | > 100 |  |  |  |  |  |  |  | 
CCC1CCC2c3c([nH]c4ccccc34)C3C(=O)N(c4ccc(OC)cc4)C(=O)C3C2C1 (stereo not given) | 41.1 | 68.1 | > 100 | 82.4 | > 100 | > 100 | > 100 | > 100 | > 100 | > 100 | > 100 | > 100 |  |  |  |  |  |  |  | 
O=S(=O)(/N=C1/SC(=Nc2ccccc2)N(c2ccccc2)/C1=N/S(=O)(=O)c1ccccc1)c1ccccc1 | 62.1 |  | 71 | 44.2 | 76.8 | 34.5 | 46.7 | 41.1 |  |  | 62.8 | 34.4 |  |  |  |  |  |  |  | 
Cc1nnc2sc(-c3ccc([N+](=O)[O-])o3)nn12 |  | 31 | 33.5 | 23.2 | 37.7 | 18.2 | 29.1 | 22 | 32.7 | 27.9 | 21.9 | 19.4 |  |  |  |  |  |  |  | 
COc1ccc(N2C(=O)/C(=C/c3ccc(N(CCC#N)CCC#N)cc3)N=C2c2ccccc2)c(OC)c1 | > 100 | > 100 | > 100 | > 100 | > 100 | > 100 | > 100 | > 100 | > 100 |  | > 100 | > 100 |  |  |  |  |  |  |  | 
CCOC(=O)c1cn(C)nc1N/C(C)=C\C(=O)c1ccccc1 |  | > 100 | > 100 | > 100 | > 100 | > 100 | > 100 | > 100 | > 100 | > 100 | > 100 |  |  |  |  |  |  |  |  | 
NC1CCCCC1N.O=S(=O)([O-])CCCN1CCN(CCO)CC1.O=S(=O)([O-])CCCN1CCN(CCO)CC1.[Pt+4] | > 100 | > 100 | > 100 | 21 | > 100 | > 61.4 | > 100 |  | > 100 |  |  |  | > 39.9 | 4.1 | 13.2 | > 87.2 | 2.29 | 55.4 | 2.63 | 8.14
c1ccc(-c2[nH]c(-c3ccccc3)c(-c3cnccn3)c2-c2cnccn2)cc1 | > 100 | > 100 | > 100 | > 100 | > 100 | > 100 | > 100 | > 100 | > 100 |  | > 100 |  |  |  |  |  |  |  |  | 
Cc1ccc2c(=O)c(C(=O)N(CCO)CCO)c[nH]c2n1 |  | > 100 | > 100 | > 100 | > 100 | > 100 | > 100 | > 100 |  | > 100 | > 100 | > 100 |  |  |  |  |  |  |  | 
CC(=O)O[C@H]1C(=O)[C@@]2(C)C(C(OC(=O)c3ccccc3)[C@]3(O)CC(OC(=O)C(O)C(NC(=O)c4ccccc4)c4ccc(C)cc4)C(C)=C1C3(C)C)[C@]1(OC(C)=O)CO[C@@H]1C[C@@H]2O (stereo not given in full) | 1.31 |  | 9.9 | 0.0256 | > 25 | 8.01 | 19 | 6.68 | 0.0962 |  | 0.105 |  |  |  |  |  |  |  |  | 
C=C1C(=O)O[C@H]2C/C(C=O)=C\[C@H]3O[C@H]3/C(COC(=O)C(C)C)=C/CC12 (stereo not given in full) |  | 75.5 | 22.7 | 6.87 | 29.8 | 9.43 | 18.5 | 10.7 |  | 8.59 |  | 13.4 |  |  |  |  |  |  |  | 
O=C(NCCCCNCCCNC(=O)OCc1ccccc1)OCc1ccccc1 | 89.4 | 51.5 | 98.5 | > 100 | > 100 | > 100 | 73.9 | 55.5 | > 100 | > 100 | 40.1 |  |  |  |  |  |  |  |  | 
COc1ccc(C2=NNC(=O)c3ccccc3N2c2nc(-c3cccs3)nc3ccc(Br)cc23)cc1 | > 100 | 55.1 | > 100 | > 100 | 91.5 | > 100 | > 100 | 82 | > 100 | 91.4 | > 100 |  |  |  |  |  |  |  |  | 
COc1ccc(NS(=O)c2cccc(C)c2)cc1 (stereo not given) | > 100 | > 100 | > 100 | > 100 | > 100 | > 100 | > 100 | > 100 |  | > 100 | > 100 | > 100 |  |  |  |  |  |  |  | 
CCOC(=O)c1c(-c2ccc(OC)c(O)c2)c(C#N)c(=S)n(C2OC(CO)C(O)C(O)C2O)c1-c1ccccc1 (stereo not given) |  | > 100 | > 100 | > 100 | > 100 | > 100 | > 100 | > 100 |  | > 100 | > 100 | > 100 |  |  |  |  |  |  |  | 
CC1OC=CC(=O)C1O (stereo not given) | > 100 | > 100 | > 100 | > 100 | > 100 | > 100 | > 100 |  | > 100 |  | > 100 |  |  |  |  |  |  |  |  | 
